Among the data in ChEMBL document CHEMBL3813697, “Design, synthesis, and anticancer activity of C8-substituted-4'-thionucleosides as potential HSP90 inhibitors” (Bioorg Med Chem, 2016) are inhibition and IC50 values, retold here.

Each structure is given as a SMILES string. The source made the active and inactive calls. No cut-off for these calls is given here.

The target of assay [1] is Heat shock protein HSP90 (Homo sapiens) (UniProt P07900+P08238). As to the kind of experiment: Competitive inhibition of recombinant HSP90 (unknown origin) at 100 uM measured after 3 hrs using FITC-labeled geldanamycin by fluorescence polarization assay.
The subject of assay [2] is MDA-MB-231. As to the kind of experiment: Anticancer activity against human MDA-MB-231 cells measured after 72 hrs by SRB assay. The conditions noted are these: MDA-MB-231, 72 h. It counts as functional, cell-based.
Assay [3] deals with A549. As to the kind of experiment: Anticancer activity against human A549 cells measured after 72 hrs by SRB assay. It counts as functional, cell-based. The settings on record: A549, 72 h. In general terms: The SRB assay estimates cell density from bound dye.
A short description of assay [4]: Anticancer activity against human Caki1 cells measured after 72 hrs by SRB assay. It counts as functional, cell-based. The conditions noted are these: CAKI-1, 72 h.
Assay [5] is described as follows: Anticancer activity against human HCT116 cells measured after 72 hrs by SRB assay. It counts as functional, cell-based. The conditions noted are these: HCT-116, 72 h.
The nature of assay [6]: Anticancer activity against human SNU638 cells measured after 72 hrs by SRB assay. It counts as functional, cell-based. The settings on record: SNU-638, 72 h.

Regarding `O[C@@H]1[C@H](O)CS[C@H]1n1c(-c2ccco2)nc2c(Cl)ncnc21`, in assay [1], the inhibition – broadly, the percentage by which the read-out fell short of the control – is “inactive”. On to `CNc1nc2c(N)ncnc2n1[C@@H]1SC[C@@H](O)[C@H]1O`, for which the inhibition entry in assay [1] is “inactive”. The same measure, in the same setting: with `CCCNc1nc2c(N)ncnc2n1[C@@H]1SC[C@@H](O)[C@H]1O` the entry was “inactive”; with `CNc1ncnc2c1nc(-c1cccs1)n2[C@@H]1SC[C@@H](O)[C@H]1O`, “inactive”. For the molecule `CCCNc1nc2c(N)ncnc2n1[C@@H]1S[C@H](CO)[C@@H](O)[C@H]1O`, the inhibition result in assay [1] is “inactive”. The same measure, in the same setting: with `Nc1ncnc2c1nc(N1CCCCC1)n2[C@@H]1SC[C@@H](O)[C@H]1O` the entry was “inactive”.

As to `Nc1ncnc2c1nc(-c1ccco1)n2[C@@H]1SC[C@@H](O)[C@H]1O`, the inhibition result in assay [1] was “inactive”. For `Nc1ncnc2c1nc(NCc1ccc3c(c1)OCO3)n2[C@@H]1SC[C@@H](O)[C@H]1O`, the IC50 in assay [2], in assay [3], in assay [4], in assay [5] and in assay [6] was above 100000 nM in each case. The inhibition result in assay [1] is “inactive”.

For `Nc1ncnc2c1nc(-c1ccco1)n2[C@@H]1S[C@H](CO)[C@@H](O)[C@H]1O`, the inhibition entry in assay [1] was “inactive”. As for `COC1=C2C[C@@H](C)C[C@H](OC)[C@H](O)[C@@H](C)/C=C(\C)[C@H](OC(N)=O)[C@@H](OC)/C=C\C=C(/C)C(=O)NC(=CC1=O)C2=O` [GELDANAMYCIN], the IC50 (as a rule, the midpoint of a concentration-inhibition curve) in assay [2] amounted to 110 nM; in assay [3], 109 nM; in assay [4], 56 nM; in assay [5] it was 150 nM; in assay [6], 30 nM.

On to `Nc1ncnc2c1nc(-c1ccccc1)n2[C@@H]1S[C@H](CO)[C@@H](O)[C@H]1O`, for which the inhibition result in assay [1] was “inactive”.

`[N-]=[N+]=Nc1nc2c(N)ncnc2n1[C@@H]1S[C@H](CO)[C@@H](O)[C@H]1O`: the inhibition result in assay [1] was “inactive”. `Nc1ncnc2c1nc(-c1cccs1)n2[C@@H]1SC[C@@H](O)[C@H]1O`: the inhibition result in assay [1] was “inactive”. On the same count and under the same terms, with `O[C@@H]1[C@H](O)CS[C@H]1n1c(-c2cccs2)nc2c(Cl)ncnc21` the entry was “inactive”.

As for `CNc1ncnc2c1nc(-c1ccco1)n2[C@@H]1SC[C@@H](O)[C@H]1O`, the inhibition result in assay [1] was “inactive”.

As to `Nc1ncnc2c1nc(I)n2[C@@H]1SC[C@@H](O)[C@H]1O`, in assay [1], the inhibition is 11%. Consider `[N-]=[N+]=Nc1nc2c(Cl)ncnc2n1[C@@H]1SC[C@@H](O)[C@H]1O`, for which the inhibition entry in assay [1] is “inactive”. For the molecule `Nc1ncnc2c1nc(N1CCCCC1)n2[C@@H]1S[C@H](CO)[C@@H](O)[C@H]1O`, in assay [1], the inhibition entry is “inactive”. For the molecule `[N-]=[N+]=Nc1nc2c(N)ncnc2n1[C@@H]1SC[C@@H](O)[C@H]1O`, in assay [1], the inhibition result is “inactive”. On to `CNc1nc2c(N)ncnc2n1[C@@H]1S[C@H](CO)[C@@H](O)[C@H]1O`, for which the inhibition result in assay [1] is “inactive”. Regarding `Nc1ncnc2c1nc(NCc1ccccc1)n2[C@@H]1SC[C@@H](O)[C@H]1O`, the inhibition result in assay [1] is “inactive”.

Consider `Nc1ncnc2c1nc(-c1cccs1)n2[C@@H]1S[C@H](CO)[C@@H](O)[C@H]1O`, for which the inhibition result in assay [1] was “inactive”.
